Data from patent US7622581B2, “6,7,8,9-substituted 1-phenyl-1,5-dihydro-pyrido[3,2-b]indol-2-ones useful as anti-infective pharmaceutical agents” (Tibotec Pharmaceuticals Ltd., priority 2004, dated 2009).

tested on: HIV; assay: Cellular assay: anti-viral activity in HIV-infected MT4 cells (MTT viability); assay type: cell-based; details: Human immunodeficiency virus 1, 120 h, five days incubation, MTT readout, negative logarithm of EC50 (protection of 50% of cells from cytopathogenic effect of the virus)
Protocol: The compounds of the present invention were examined for anti-viral activity in a cellular assay, which was performed according to the following procedure.
HIV- or mock-infected MT4 cells were incubated for five days in the presence of various concentrations of the inhibitor. At the end of the incubation period, the replicating virus in the control cultures has killed all HIV-infected cells in the absence of any inhibitor. Cell viability was determined by measuring the concentration of MTT, a yellow, water soluble tetrazolium dye that is converted to a purple, water insoluble formazan in the mitochondria of living cells only. Upon solubilization of the resulting formazan crystals with isopropanol, the absorbance of the solution was monitored at 540 nm. The values correlate directly to the number of living cells remaining in the culture at the completion of the five day incubation. The inhibitory activity of the compound was monitored on the virus-infected cells and was expressed as EC50 and EC90. These values represent the amount of the compound required to protect 50% and 90%, respectively, of the cells from the cytopathogenic effect of the virus. The toxicity of the compound was measured on the mock-infected cells and was expressed as CC50, which represents the concentration of compound required to inhibit the growth of the cells by 50%. The selectivity index (SI) (ratio CC50/EC50) is an indication of the selectivity of the anti-HIV activity of the inhibitor. Wherever results are reported as e.g. pEC50 or pCC50 values, the result is expressed as the negative logarithm of the result expressed as EC50 or CC50 respectively.

| Structure (SMILES) | EC50 |
| --- | --- |
| Cn1c2ccc(N3CCOCC3)cc2c2c1cc(C#N)c(=O)n2-c1ccc([N+](=O)[O-])cc1 [Compound 3, 8-morpholin-5-methyl-1-(4-nitro-phenyl)-2-oxo-2,5-dihydro-1H-pyrido[3,2-b]indole-3-carbonitrile] | 2510 nM |
| CN1CCN(c2ccc3c(c2)c2c(cc(C#N)c(=O)n2-c2ccc([N+](=O)[O-])cc2)n3C)CC1 [Compound 4] | 316 nM |
| CN(C)CCCN(C)c1ccc2c(c1)c1c(cc(C#N)c(=O)n1-c1ccc([N+](=O)[O-])cc1)n2C [Compound 7, 8-[(3-Dimethylamino-propyl)-methylamino]-5-methyl-1-(4-nitro-phenyl)-2-oxo-2,5-dihydro-1H-pyrido[3,2-b]indole-3-carbonitrile] | 158 nM |
| Cn1c2ccc(N)cc2c2c1cc(C#N)c(=O)n2-c1ccc([N+](=O)[O-])cc1 [Compound 8] | 20000 nM |
| COC(=O)c1ccc2c(c1)c1c(cc(C#N)c(=O)n1-c1ccc(N)cc1)n2C [Compound 9] | 15800 nM |
| COC(=O)c1ccc2c(c1)c1c(cc(C#N)c(=O)n1-c1ccc([N+](=O)[O-])cc1)n2C [Compound 12] | 2000 nM |
| Cn1c2cc(F)c(F)cc2c2c1cc(C#N)c(=O)n2-c1ccc([N+](=O)[O-])cc1 [Compound 15] | 398 nM |
| COc1cc2c(cc1F)c1c(cc(C#N)c(=O)n1-c1ccc([N+](=O)[O-])cc1)n2C [Compound 16] | 3980 nM |
| CN(C)CCCOc1ccc2c(c1)c1c(cc(C#N)c(=O)n1-c1ccc([N+](=O)[O-])cc1)n2C [Compound 18, 8-[(3-Dimethylamino-propyl)-oxy]-5-methyl-1-(4-nitro-phenyl)-2-oxo-2,5-dihydro-1H-pyrido[3,2-b]indole-3-carbonitrile] | 251 nM |
| Cc1ccc2c(c1)c1c(cc(C#N)c(=O)n1-c1ccc([N+](=O)[O-])cc1)n2C [Compound 26] | 15800 nM |
| COc1ccc2c(c1)c1c(cc(C#N)c(=O)n1-c1ccc([N+](=O)[O-])cc1)n2C [Compound 27, 8-methoxy-5-methyl-1-(4-nitro-phenyl)-2-oxo-2,5-dihydro-1H-pyrido[3,2-b]indole-3-carbonitrile] | 79.4 nM |
| N#Cc1cc2[nH]c3cc(F)c(F)cc3c2n(-c2ccc([N+](=O)[O-])cc2)c1=O [Compound 28] | 2510 nM |
| Cn1c2ccc(O)cc2c2c1cc(C#N)c(=O)n2-c1ccc([N+](=O)[O-])cc1 [Compound 29, 8-hydroxy-5-methyl-1-(4-nitro-phenyl)-2-oxo-2,5-dihydro-1H-pyrido[3,2-b]indole-3-carbonitrile] | 200 nM |
| Cn1c2cc(O)ccc2c2c1cc(C#N)c(=O)n2-c1ccc([N+](=O)[O-])cc1 [Compound 32] | 1260 nM |
